# Reference: US12297453B2, “Generation of norepinephrine neurons from human stem cells” (Wisconsin Alumni Research Foundation, priority 2020, dated 2025)
# B1: FGF8: growth factor tested for NE fate specification (protein, UniProt P55075 23-233, looked up)
# Fibroblast growth factor 8: QEGPGRGPALGRELASLFRAGREPQGVSQQHVREQSLVTDQLSRRLIRTYQLYSRTSGKHVQVLANKRINAMAEDGDPFAKLIVETDTFGSRVRVRGAETGLYICMNKKGKLIAKSNGKGKDCVFTEIVLENNYTALQNAKYEGWYMAFTRKGRPRKGSKTRQHQREVHFMKRLPRGHHTTEQSLRFEFLNYPPFTRSLRGSQRTWAPEPR
# B2: BMP7: bone morphogenetic protein (protein, UniProt P18075 293-431, looked up)
# Bone morphogenetic protein 7: STGSKQRSQNRSKTPKNQEALRMANVAENSSSDQRQACKKHELYVSFRDLGWQDWIIAPEGYAAYYCEGECAFPLNSYMNATNHAIVQTLVHFINPETVPKPCCAPTQLNAISVLYFDDSSNVILKKYRNMVVRACGCH
# B3: BMP5: bone morphogenetic protein (protein, UniProt P22003 317-454, looked up)
# Bone morphogenetic protein 5: AANKRKNQNRNKSSSHQDSSRMSSVGDYNTSEQKQACKKHELYVSFRDLGWQDWIIAPEGYAAFYCDGECSFPLNAHMNATNHAIVQTLVHLMFPDHVPKPCCAPTKLNAISVLYFDDSSNVILKKYRNMVVRSCGCH
# B4: BMP4: bone morphogenetic protein (protein, UniProt P12644 293-408, looked up)
# Bone morphogenetic protein 4: SPKHHSQRARKKNKNCRRHSLYVDFSDVGWNDWIVAPPGYQAFYCHGDCPFPLADHLNSTNHAIVQTLVNSVNSSIPKACCVPTELSAISMLYLDEYDKVVLKNYQEMVVEGCGCR
# B5: Activin A: ligand in TGF-β pathway directing NE cell fate specification (protein, UniProt P08476 311-426, looked up)
# Inhibin beta A chain: GLECDGKVNICCKKQFFVSFKDIGWNDWIIAPSGYHANYCEGECPSHIAGTSGSSLSFHSTVINHYRMRGHSPFANLKSCCVPTKLRPMSMLYYDDGQNIIKKDIQNMIVEECGCS
# Columns and labels:
# Type in all cases: cell-based, human
# [1] = tested on: hindbrain R1 neuroepithelial cells; assay: NE progenitor fate specification of hindbrain R1 neuroepithelial cells (qPCR of MASH1, PHOX2B, PHOX2A and regional markers); conditions: for effect on expression of MASH1, PHOX2B, and PHOX2A: day 6 to day 12
# Description: (§1) On day 5, change the medium without SB431542. […] Cells were feed daily.
# Development of NE neurons in LC depends on expression of Mash1, Phox2b and Phox2a in a stage dependent manner. See Pattyn et al., 2000, Mol Cell Neurosci, 15:235-243; Morin et al., 1997, Neuron, 18:411-423; Hirsch et al., 1998, Development, 125:599-608. Mash1 is expressed in the proliferative progenitor cells, while Phox2b and Phox2a are expressed when cells became postmitotic precursors and neurons. Pattyn et al., 2000. […] Thus, the effects of FGF8 and BMPs were tested in the second week of differentiation (FIG. 2B).
# In further experiments it was determined whether the unique role of Activin A on human NE neuron specification was regional identity dependent. Neuroepithelial cells ranging from anterior forebrain to posterior hindbrain were obtained using different doses of CHIR99021, and then these neuroepithelial cells were treated with 25 ng/ml Activin A for 6 days.
# Specifically, gene expression of MASH1 and PHOX2A/2B at different times was observed when NE progenitors were cultured in the presence of a low dose of Activin A (25 ng/ml) or a high dose of Activin A (125 ng/ml).
# To determine whether blockade of BMP pathway or SHH pathway could facilitate NE specification, which could narrow the domain along the dorsal to ventral axis, hindbrain R1 neuroepithelial cells were treated with Activin A with or without BMP and SHH antagonist (FIGS. 3D-3I).
# hESCs (H9 line) = assay: Patterning of hESCs to hindbrain R1 neuroepithelial cells with a CHIR99021 dose series (RT-qPCR, flow cytometry, immunocytochemistry)
# Description: as §1
# gRNA was designed according to Benchling. Donor plasmid was generated by NEBuilder® HiFi DNA Assembly Master Mix (NEB, E2621S). Briefly, hPSCs were digested by TrypLE Express. Gene Pulser Xcell (Bio-Rad) was used for CRISPR/Cas9 delivery. Two-million cells were electroporated with 15 μg of sgRNA plasmid (pLenti-CRISPR) with 30 μg donor plasmid. Cells were plated at ˜150,000 cells/well of 6-well plate. Starting 24 hours after electroporation, 0.5 μg/ml puromycin were added to the culture medium. After 3 days of puromycin selection, hPSCs were switched to their normal culture medium and fed every other day until approximately 1-2 weeks after electroporation when distinct colonies were established. • Cell transplantation: Small aggregates of NE neural progenitors (day 10-day 12) were collected and suspended in artificial cerebral spinal fluid (aCSF) containing Rock inhibitor (0.5 μM), at a concentration of 100,000 cells/μl. 1 μl of cells were slowly injected into the left cortex (AP=+0.0 mm, ML=+1.8 mm, DV=−1.7 mm, from skull) of adult SCID mice (8-12 weeks) that were anesthetized with 1%-2% isoflurane mixed in oxygen. • Immunocytochemistry and flow cytometry: Immunocytochemistry was performed as described previously. See Huang et al., 2016, Sci Rep, 6:32600, doi:10.1038/srep32600. In brief, cells on coverslips were fixed in 4% neutral-buffered paraformaldehyde (PFA) for 10 minutes (min) at room temperature. Following rinsing with PBS, these cells were incubated in 0.2% Triton X-100 (in phosphate buffered saline (PBS)) for 10 min followed by 10% donkey serum (in PBS) at room temperature for 1 hour (h). The cells were then incubated with primary antibodies diluted in 5% donkey serum in 0.1% Triton X100 (in PBS) at 4° C. overnight, followed by fluorescently conjugated secondary antibodies at room temperature for 30 min. The nuclei were stained with Hoechst. Images were collected with a Nikon A1 laser-scanning confocal microscope. Flow cytometry was performed using Transcription Factor Buffer Set which is designed for transcription factor staining following manufacturer's instruction. Briefly, single cells were prepared using TrypLE Express Enzyme and fixed in the fixation buffer provided by the kit at 2-8° C. for 45 min. After 3 washings with the permeable buffer, primary antibodies were added to cells for 45 min at 2-8° C. in a light-tight box. Cells were washed three times before fluorescently conjugated secondary antibodies. Second antibodies were incubated with cells for 45 minutes at 2-8° C. in a light-tight box and followed by washing three times. After the last wash, cells were suspended in washing buffer and analyzed by flow cytometry (BD LSR or BD LSRII). Data analysis was performed using FlowJo. • ELISA: To detect NE release into medium during neuronal differentiation, supernatant was collected at indicated time points along differentiation. Enzyme-linked immunosorbent assay (ELISA) were performed using a Noradrenaline (Norepinephrine) ELISA Assay Kit (EAGLE, NOR31-K01) following the manufacturer's instructions. • Electrophysiology: Whole-cell patch-clamp recordings were made from human ESC-derived NE neurons at 4 weeks. Briefly, the NE neurons were held at −70 mV to record the Na+/K+ channel activities with voltage-clamp model. For recording action potentials, the cells were held at 0 pA with the current-clamp model, and with the steps of injected currents from −50 pA to +50 pA. The bath solution consisted of 135 mM NaCl, 3 mM KCl, 2 mM CaCl2), 1 mM MgCl2, 10 mM HEPES, 11 mM glucose, 10 mM sucrose, pH7.4. […]
# [2] = tested on: GRABNE1m sensor-expressing NE neurons; assay: Fluorescence imaging of GRABNE1m sensor cells; conditions: 1 μM
molecule,measurement,setting,value
"CC(C)Oc1ccc(-c2cnc3c(-c4ccnc5ccccc45)cnn3c2)cc1 [DMH1, 4-[6-(4-Isopropoxyphenyl)pyrazolo[1,5-a]pyrimidin-3-yl]quinoline]",increase of NE progenitor markers,"[1]; 2 μM, with Activin A",1.5 fold
Cc1c[nH]c(-c2cnc(NCCNc3ccc(C#N)cn3)nc2-c2ccc(Cl)cc2Cl)n1 [CHIR99021],cells expressing EN1 by immunocytochemistry,"hESCs (H9 line); 1 μM, day 6",majority of the cells
same,cells positive for OTX2 and HOXA2 by immunocytochemistry,"hESCs (H9 line); 1 μM, day 6",few or no cells
same,"concentration above which EN1, EN2, PAX2 mRNA began to down-regulate and HOXA2, GBX2 increased","hESCs (H9 line); 6 days, mRNA level",above 0.6 μM
same,concentration at which PHOX2B and PHOX2A reached their highest level,"hESCs (H9 line); dose increment, 6 days",around 1 μM
same,"expression of midbrain transcription factor genes EN1, EN2, PAX2",hESCs (H9 line); increasing concentrations over 6 days,upregulated
same,expression of OTX2 at mRNA and protein levels,"hESCs (H9 line); increasing concentrations over 6 days, RT-qPCR and flow cytometry",down-regulated
TGF-β1: transforming growth factor β1,"effect on expression of MASH1, PHOX2B, and PHOX2A",[1]; 10 ng/ml,not
NC[C@H](O)c1ccc(O)c(O)c1 [Norepinephrine],intensity of GRABNE1m sensor fluorescence,[2],increased
CC1=C2C[C@H]3[C@@H](CC=C4C[C@@H](O)CC[C@@]43C)[C@@H]2CC[C@]12O[C@@H]1C[C@H](C)CN[C@H]1[C@H]2C [cyclopamine],effect on NE progenitor markers MASH1 and PHOX2A/2B,"[1]; 2 μM, with Activin A",only minor effects
same,expression of dorsal markers MATH1 and OLIG3,"[1]; 2 μM, with Activin A",increased expression
B1,"effect on expression of MASH1, PHOX2B, and PHOX2A",[1]; 100 ng/ml,no obvious effects
B2,"effect on expression of MASH1, PHOX2B, and PHOX2A",[1]; 10 ng/ml,no obvious effects
B3,"effect on expression of MASH1, PHOX2B, and PHOX2A",[1]; 10 ng/ml,no obvious effects
B4,"effect on expression of MASH1, PHOX2B, and PHOX2A",[1]; 10 ng/ml,no obvious effects
B5,concentration at which MASH1 reached maximum expression level,[1],25 ng/mL
same,concentration at which PHOX2B and PHOX2A reached maximum level,[1],250 ng/mL
same,"effect on expression of MASH1, PHOX2B, and PHOX2A",[1]; 10 ng/ml,positive effect
same,"PHOX2B expression, high dose (125 ng/ml) versus low dose (25 ng/ml)",[1]; day 9,similar
same,"MASH1 expression, high dose (125 ng/ml) versus low dose (25 ng/ml)",[1]; day 9 to day 12,no obvious difference
same,"PHOX2B expression, high dose (125 ng/ml) versus low dose (25 ng/ml)",[1]; day 12,over 2 fold
same,"increase of MASH1, PHOX2B, and PHOX2A expression with dose",[1]; series of Activin A concentrations,dose-dependent manner
